Patent US20040109845A1, “Method for inhibiting articular cartilage matrix calcification” (priority 2001, published 2004)
Entries after “also recorded” stand apart in the source; their conditions may differ.

What was measured:
[1] = test system: TGase activity in knee meniscal cells and TC28 cells; assay: TGase activity in nonadherent nodule-forming culture on polyHEME; format: cell-based, human; details: polyHEME plates, β-glycerophosphate, ascorbate, dexamethasone, up to 10 days; cytokines 10 ng/ml or TGase transfection
Experimental: FIG. 10 refers to effects of direct Factor XIIIa and tTGase expression on TGase activity in meniscal cells and TC28 cells. Human chondrocytic TC28 cells or normal knee meniscal cells (5×10^5), were plated in 60 mm dishes and allowed to adhere overnight, as described in the Methods. Two μg of plasmid DNAs or empty plasmid vector were then transfected, performed as described above. After 24 hrs, the cells were removed from the dishes and plated on polyHEME-coated tissue culture plates and media supplemented with 10 mM P-glycerophosphate, ascorbatte (50 μg/ml) and dexamethasone (10^−8 M), which stimulated the cells to form mineralizing nodules for 3-10 days in culture. For comparison purposes, cells were treated only with IL-1 or TGFβ (10 ng/ml each) for up to 10 days. At each time point designated, the cell nodules were collected and lysed, and TGase activity then determined as previously described. For meniscal cells, data pooled from 6 donors studied in triplicate. For TC28 cells, n=6 each, studied in triplicate. Statistics not indicated on this graph, but p<0.05 for the increases in TGase activities in response to both Factor XIIIa and tTGase transfection, and for IL-1 treatment, at all time points.
TGase activity was measured by modifications to a previously described method (35). Specifically, we coated 96 well ImmunoModule plates (Nunc, Rochester, N.Y.) with 200 μl of 20 mg/ml N,N-dimethylcasein for 1 hr at 23° C. The N,N-dimethylcasein was removed and nonspecific protein binding was blocked by adding 3% BSA in 100 mM Tris, pH 8.5, 150 mM NaCl, 0.05% Tween-20 (TBST) to each well for an additional 1 hr at 23° C. Then, aliquots of 5 μg of total cellular protein from meniscal or TC28 cells that had been lysed and sonicated (in 5 mM Tris HCl, 0.25 M sucrose, 0.2 mM MgSO4, 2 mM DTT, 0.4 mM PMSF, 0.4% Triton X100, pH 7.5), were added to the plate in triplicate. To measure TGase in extracts of whole menisci, 50 mg dry weight of tissue from the central zone of each medial meniscus was used as the source (after solubilization and sonication) for aliquots of 5 μg of soluble protein. Fifty μl of solution A (100 mM Tris, pH 8.5 and 20 mM CaCl2) was added to all samples for TGase assay, followed by the addition of 50 μl of solution B (100 mM Tris, pH 8.5, 40 mM DTT and freshly added 2 mM 5-(Biotinamido) pentylamine (BP)). The plates were incubated for 1 hr at 37° C. The wells were washed once with TBST containing 1 mM EDTA and then three times with TBST. […] Readings at OD410 were taken over 15 minutes. […] TGase activity was designated as the amount of BP incorporated into casein (per μg cellular DNA, determined chromogenically following precipitation in perchlorate (28), or, where indicated, per μg protein, determined as previously described (28)). […]

[2] = test system: meniscal cells and TC28 cells; assay: Matrix calcification, quantitative Alizarin Red S binding assay; format: cell-based, human; details: polyHEME culture up to 10 days; cytokines 10 ng/ml or TGase transfection
Experimental: TC28 cells and meniscal cells were transfected with empty plasmid or a TGase expression construct, and then transferred to polyHEME and cultured for up to 10 days, as described above. For comparison purposes, control untransfected cells were treated with IL-1 or TGFβ(10 ng/ml each) for up to 10 days. To measure matrix calcification, media and cells were removed from the PolyHEME-coated dishes, and 1 ml Alizarin Red S solution (0.5% v/v Alizarin Red S, pH 5.0) added to washed plates at 23° C. for 10 min. After further washing, 100 mM Cetylpyridium Chloride was added for 10 min to release the remaining calcium-bound Alizarin Red S. The solution was collected and read at OD570, with 1.0 OD570=1 unit of Alizarin Red released per μg of DNA per culture dish. n=6 each, studied in triplicate, and using 6 different knee meniscal donors. *p<0.05.
To promote matrix calcification in short-term cultures, we modified a nonadherent chondrocyte culture system (37), and assessed cells that formed calcifying nodules over 10 days in culture. In brief, meniscal and TC28 cells, at 24 hours after the transfection, were washed and removed from the dish using 0.2 mg/ml EDTA, pH 8.0, then transferred to 6 well plates that had been previously coated with a 10% (wt./v) in 95% ethanol solution of Poly (2-Hydroxyethyl methacrylate) (polyHEME). […]
To assay calcification of the pericellular matrix of meniscal cells and TC28 cells, we used a quantitative Alizarin Red S binding assay (38). […] The solution was collected and read at OD570 on a SpectraMAX microplate reader (Molecular Devices, Sunnyvale, Calif.), with 1 OD570=1 unit of Alizarin Red released per μg of DNA per culture dish. We extracted matrix crystals from plates under each condition using a papain-hypochlorite method (39), and the crystals were embedded in Spurr epoxy resin, sectioned, and viewed on a Philips EM340 transmission electron micrograph and analyzed by electron diffraction (40,41).

[3] = test system: TGase activity (tTGase and Factor XIIIa) in meniscal cells; assay: TGase activity in cultured knee meniscal cells (BP incorporation into N,N-dimethylcasein); format: cell-based, human; details: monolayer culture, 48-72 hrs; IL-1β, TGFβ, TNFα 10 ng/ml; Noc-12 2.5-25 μM; Sin-1 1-10 μM
Experimental: Meniscal cells were maintained in DMEM high glucose and supplemented with 10% FCS, 1% L-glutamine, 100 units/ml Penicillin and 50 μg/ml Streptomycin (Omega Scientific, Tarzana, Calif.) and cultured at 37° C. with 5% CO2. In monolayer cell culture studies involving stimulation by TGFE[…] or IL-1, the cells were placed in DMEM high glucose containing 1% FCS, 1% L-glutamine, 100 units/ml Penicillin and 50 μg/ml Streptomycin. In all other studies, the cells were cultured in complete medium (as described above). Only primary or first passage meniscal cells were studied.
TGase activity was measured by modifications to a previously described method (35). Specifically, we coated 96 well ImmunoModule plates (Nunc, Rochester, N.Y.) with 200 μl of 20 mg/ml N,N-dimethylcasein for 1 hr at 23° C. The N,N-dimethylcasein was removed and nonspecific protein binding was blocked by adding 3% BSA in 100 mM Tris, pH 8.5, 150 mM NaCl, 0.05% Tween-20 (TBST) to each well for an additional 1 hr at 23° C. Then, aliquots of 5 μg of total cellular protein from meniscal or TC28 cells that had been lysed and sonicated (in 5 mM Tris HCl, 0.25 M sucrose, 0.2 mM MgSO4, 2 mM DTT, 0.4 mM PMSF, 0.4% Triton X100, pH 7.5), were added to the plate in triplicate. To measure TGase in extracts of whole menisci, 50 mg dry weight of tissue from the central zone of each medial meniscus was used as the source (after solubilization and sonication) for aliquots of 5 μg of soluble protein. Fifty μl of solution A (100 mM Tris, pH 8.5 and 20 mM CaCl2) was added to all samples for TGase assay, followed by the addition of 50 μl of solution B (100 mM Tris, pH 8.5, 40 mM DTT and freshly added 2 mM 5-(Biotinamido) pentylamine (BP)). The plates were incubated for 1 hr at 37° C. The wells were washed once with TBST containing 1 mM EDTA and then three times with TBST. One hundred μl of a 1:500 dilution of streptavidin-AP in 3% BSA/TBST was added to each well for 1 hr at 23° C. The wells were washed twice with TBST, and 200 μl of solution C (100 mM Tris, pH 9.8, mM NaCl, 5 mM MgCl2, 1 mg/ml of freshly added p-nitrophenylphosphate) was added to each well. Readings at OD410 were taken over 15 minutes. Purified guinea pig liver TGase (Sigma) was used to prepare a standard curve. TGase activity was designated as the amount of BP incorporated into casein (per μg cellular DNA, determined chromogenically following precipitation in perchlorate (28), or, where indicated, per μg protein, determined as previously described (28)).
To directly induce expression of each TGase in meniscal cells, 5×10^5 primary cells were plated in 60 mm dishes and allowed to adhere overnight. We modified (28) the manufacturer's protocol for the Lipofectamine Plus kit (Life Technologies, Grand Island, N.Y.). To optimize the transfection of meniscal cells, we added 2.0 ml of serum-free DMEM/F12 containing 0.00015% digitonin to washed cells and incubated for 3 min at 23° C. Then, media was removed, and cells transfected at 37° C. for 7 hrs, followed by removal of the media and addition of complete DMEM high glucose medium. Transfection of each TGase into TC28 cells was done by the same procedure, with the exception that the digitonin permeabilization step was omitted.

[4] = test system: NTPPPH; assay: NTPPPH activity of cultured meniscal cells; format: cell-based, human; details: 48 h, 10 ng/ml
Experimental: (§1) Meniscal cells (from the same donors used in FIG. 3 above) were released from the matrix with collagenase digestion, and grown in monolayer culture for 72 hrs, then trypsinized and plated in 35 mm dishes (containing 3×10^5 cells) and allowed to adhere overnight. Cells were then treated for 48 h with 10 ng/ml of TGFβ or IL-1β (10 ng/ml) in 1% FCS-containing DMEM high glucose medium. The cells were collected and lysed for the TGase (FIG. 5A), NTPPPH (FIG. 5B), and AP (FIG. 5C) assays as described in the Methods. Five micrograms of soluble protein was studied in triplicate for each assay performed as previously described. Results were analyzed by linear regression, with results indicated.
(§2) PPi was determined by differential adsorption on activated charcoal of UDP-D-[6-^3H] glucose (Amersham, Chicago, Ill.) from the reaction product 6-phospho [6-^3H] gluconate (28). Units of NTPPPH and AP were designated as micromoles of substrate hydrolyzed per hour (per μg DNA in each sample) (28). NO release by cultured meniscal cells was measured using the Greiss reaction (33). Concentrations or specific activities of PPi, NTPPPH, and AP were equalized for cellular DNA concentrations in each well.

[5] = test system: tTGase and Factor XIIIa expression in knee articular cartilage and medial meniscus; assay: Immunohistochemistry of cartilage organ culture; format: cell-based, human; details: organ culture 48 hours
Experimental: Articular cartilage and medial menisci from normal donors were studied in cartilage organ culture in media supplemented with 1% FCS and 1% L-glutamine, as described in the Methods, following 48 hours of treatment with TGFβ 10 ng/ml, IL-1β (1 ng/ml), or medium alone.
Immunohistochemistry was performed as previously described in detail (30,33,34). In brief, immunohistochemical sections (5 microns) were pretreated with bovine testicular hyaluronidase (0.5 mg/ml at 37° C. for 30 min) and incubated in 5% normal goat or rabbit serum for 20 min prior to avidin/biotin peroxidase staining by the ABC method. Hematoxilin was used as the counterstain. Biotinylated anti-rabbit or anti-goat antibodies served as secondary antibodies. Levamisole was added to block endogenous alkaline phosphatase (AP). Negative controls were nonimmune rabbit or goat serum as a substitute for primary antibody.
Meniscal cells were taken from tissue slices removed from the central regions of the medial and lateral menisci. Where indicated, meniscal organ culture was performed by incubating these slices for b 48 hours in DMEM high glucose containing 1% FCS and 1% L-glutamine (and articular cartilage organ culture performed in the same manner, where indicated). Otherwise, we minced meniscal tissue with a scalpel, incubated in DMEM high glucose containing 2 mg/ml clostridial collagenase, 5% FCS, 1% L-glutamine, 100 units/ml Penicillin and 50 μg/ml Streptomycin (Omega Scientific, Tarzana, Calif.), and incubated on a gyratory shaker at 37° C. until the tissue fragments were digested. Residual multicellular aggregates were removed by sedimentation (1,000×g), and cells were washed three times in DMEM containing 5% FCS.

[6] = test system: alkaline phosphatase (AP); assay: AP activity of cultured meniscal cells; format: cell-based, human; details: 48 h, 10 ng/ml
Experimental: as §1, §2

[7] = test system: S100A11 mRNA in human articular chondrocytes; assay: S100A11 mRNA expression by RT-PCR; format: cell-based; details: 10 ng/ml, 24 hours, relative to L30
Experimental: Normal human knee articular chondrocytes were treated in culture with IL-1 or IGF-I (10 ng/ml) for 24 hours and ascertained for S100A11 mRNA expression by RT-PCR, relative to the loading control L30, a ribosomal housekeeping gene. Results for induction of S100 A11 representative of 3 separate experiments with different donors.

| Compound | TGase activity under mineralizing nonadherent conditions [1] | Induction of TGase activity in cultured normal knee meniscal cells [3] | other results |
| --- | --- | --- | --- |
| tTGase: human 3.3 kb full length tTGase cDNA construct in pSG5, transfected into cells | markedly increased TGase activity | – | Matrix calcification (bound Alizarin Red S) [2]: induced particularly marked increases in the amount of calcium precipitated in the matrix |
| TNFα | – | stimulated increased TGase activity; also recorded: induce TGase activity | – |
| CCNCCN(CC)N(O)N=O [Noc-12, reference compound] | – | shared the ability of II-1 to induce TGase activity | – |
| [NH-]c1c[n+](N2CCOCC2)no1 [Sin-1, reference compound] | – | shared the ability of II-1 to induce TGase activity | – |
| TGFβ: Human recombinant TGF-β1 purchased from R&D Systems | did not significantly augment activity of TGase | did not induce TGase activity; also recorded: but not TGFβ | NTPPPH activity [4]: stimulated increased NTPPPH activity in association with aging; tTGase and Factor XIIIa immunostaining ([5]; knee articular cartilage and meniscal cartilage slices, TGFβ 10 ng/ml, IL-1β 1 ng/ml): induced increased tTGase and Factor XIIIa immunostaining; tTGase expression ([5]; knee articular cartilage): up-regulated tTGase expression; AP activity [6]: did not significantly change |
| IGF-1: IGF-1, involved in the pathogenesis of osteoarthritis | – | – | S100A11 mRNA expression [7]: induce mRNA expression of S100A11 |
| Factor XIIIa: recombinant human Factor XIIIa cDNA in pUC18, transfected into meniscal and TC28 cells | markedly increased TGase activity | – | Matrix calcification (bound Alizarin Red S) [2]: induced particularly marked increases in the amount of calcium precipitated in the matrix |
